Data reported in patent publication US10925856B2, “Methods and compositions involving bucindolol for the treatment of atrial fibrillation” (priority 2018, dated 2021).

Assays:
[1] = test system: plasma norepinephrine; test: Plasma norepinephrine (HPLC with electrochemical detection); conditions: entire cohort
[2] = test system: NT-proBNP; test: Plasma NT-proBNP (electrochemiluminescence immunoassay)
[3] = Europe excluding Hungary (n = 48)
[4] = change from baseline, Canada (n = 59)
[5] = change from baseline, Entire Cohort (n = 267)
[6] = change from baseline, Europe excluding Hungary (n = 48)
[7] = change from baseline, Hungary (n = 33)
[8] = change from baseline, U.S. (n = 127)

CC(C)(Cc1c[nH]c2ccccc12)NCC(O)COc1ccccc1C#N (stereo not shown) [bucindolol, 2-(3-(1-(1H-indol-3-yl)-2-methylpropan-2-ylamino)-2-hydroxypropoxy)benzonitrile]
Degree of reduction in NE by median values ([1]; week 4): 101 pg/mL | Reduction in NE ([1]; week 24): 47 pg/mL | NT-proBNP, Week 4 Mean ([2]; Canada): 859 pg/mL | NT-proBNP, Week 4 Median ([2]; Canada): 499 pg/mL | NT-proBNP, ΔWeek 4 Mean ± SEM ([2]; Canada): -455 pg/mL | NT-proBNP, ΔWeek 4 Median ([2]; Canada): -184 pg/mL | NT-proBNP, Baseline Mean ± SD ([2]; Canada (n = 59)): 1314 ± 1503 pg/mL | NT-proBNP, Baseline Median ([2]; Canada (n = 59)): 790 pg/mL | NT-proBNP, Week 12 Mean ± SD ([2]; Canada (n = 59)): 674 ± 767 pg/mL | NT-proBNP, Week 12 Median ([2]; Canada (n = 59)): 432 pg/mL | NT-proBNP, Week 24 Mean ± SD ([2]; Canada (n = 59)): 831 ± 961 pg/mL | NT-proBNP, Week 24 Median ([2]; Canada (n = 59)): 425 pg/mL | NT-proBNP, Week 4 Mean ([2]; Entire Cohort): 1196 pg/mL | NT-proBNP, Week 4 Median ([2]; Entire Cohort): 613 pg/mL | NT-proBNP, ΔWeek 4 Mean ± SEM ([2]; Entire Cohort): -0.4 pg/mL | NT-proBNP, ΔWeek 4 Median ([2]; Entire Cohort): -96 pg/mL | NT-proBNP, Baseline Mean ± SD ([2]; Entire Cohort (n = 267)): 1159 ± 1306 pg/mL | NT-proBNP, Baseline Median ([2]; Entire Cohort (n = 267)): 777 pg/mL | NT-proBNP, Week 12 Mean ± SD ([2]; Entire Cohort (n = 267)): 1052 ± 1923 pg/mL | NT-proBNP, Week 12 Median ([2]; Entire Cohort (n = 267)): 470 pg/mL | NT-proBNP, Week 24 Mean ± SD ([2]; Entire Cohort (n = 267)): 1135 ± 1632 pg/mL | NT-proBNP, Week 24 Median ([2]; Entire Cohort (n = 267)): 502 pg/mL | NT-proBNP, Week 4 Mean ([2]; Europe excluding Hungary): 756 pg/mL | NT-proBNP, Week 4 Median ([2]; Europe excluding Hungary): 431 pg/mL | NT-proBNP, ΔWeek 4 Mean ± SEM ([2]; Europe excluding Hungary): -72 pg/mL | NT-proBNP, ΔWeek 4 Median ([2]; Europe excluding Hungary): -108 pg/mL | NT-proBNP, Baseline Mean ± SD [2, 3]: 893 ± 849 pg/mL | NT-proBNP, Baseline Median [2, 3]: 600 pg/mL | NT-proBNP, Week 12 Mean ± SD [2, 3]: 782 pg/mL | NT-proBNP, Week 12 Median [2, 3]: 376 pg/mL | NT-proBNP, Week 24 Mean ± SD [2, 3]: 1859 pg/mL | NT-proBNP, Week 24 Median [2, 3]: 593 pg/mL | NT-proBNP, Week 4 Mean ([2]; Hungary): 1616 pg/mL | NT-proBNP, Week 4 Median ([2]; Hungary): 594 pg/mL | NT-proBNP, ΔWeek 4 Mean ± SEM ([2]; Hungary): +461 pg/ml | NT-proBNP, ΔWeek 4 Median ([2]; Hungary): -47 pg/mL | NT-proBNP, Baseline Mean ± SD ([2]; Hungary (n = 33)): 989 ± 1428 pg/mL | NT-proBNP, Baseline Median ([2]; Hungary (n = 33)): 567 pg/mL | NT-proBNP, Week 12 Mean ± SD ([2]; Hungary (n = 33)): 1095 ± 1929 pg/mL | NT-proBNP, Week 12 Median ([2]; Hungary (n = 33)): 446 pg/mL | NT-proBNP, Week 24 Mean ± SD ([2]; Hungary (n = 33)): 1244 ± 2515 pg/mL | NT-proBNP, Week 24 Median ([2]; Hungary (n = 33)): 244 pg/mL | NT-proBNP, Week 4 Mean ([2]; U.S.): 1501 pg/mL | NT-proBNP, Week 4 Median ([2]; U.S.): 796 pg/mL | NT-proBNP, ΔWeek 4 Mean ± SEM ([2]; U.S.): +182 pg/ml | NT-proBNP, ΔWeek 4 Median ([2]; U.S.): -75 pg/mL | NT-proBNP, Baseline Mean ± SD ([2]; U.S. (n = 127)): 1245 ± 1332 pg/mL | NT-proBNP, Baseline Median ([2]; U.S. (n = 127)): 904 pg/mL | NT-proBNP, Week 12 Mean ± SD ([2]; U.S. (n = 127)): 1383 ± 2538 pg/mL | NT-proBNP, Week 12 Median ([2]; U.S. (n = 127)): 561 pg/mL | NT-proBNP, Week 24 Mean ± SD ([2]; U.S. (n = 127)): 1124 ± 1516 pg/mL | NT-proBNP, Week 24 Median ([2]; U.S. (n = 127)): 653 pg/mL | NT-proBNP decrease ([2]; Week 24, Canadian cohort): −39% | NT-proBNP decrease relative to that in the metoprolol group ([2]; Week 24, Canadian cohort): ~3 fold | NT-proBNP, ΔWeek 12 Mean ± SEM [2, 4]: -602 ± 232 pg/mL | NT-proBNP, ΔWeek 12 Median [2, 4]: -176 pg/mL | NT-proBNP, ΔWeek 24 Mean ± SEM [2, 4]: -442 ± 223 pg/mL | NT-proBNP, ΔWeek 24 Median [2, 4]: -271 pg/mL | NT-proBNP, ΔWeek 12 Mean ± SEM [2, 5]: -108 ± 133 pg/mL | NT-proBNP, ΔWeek 12 Median [2, 5]: -96 pg/mL | NT-proBNP, ΔWeek 24 Mean ± SEM [2, 5]: -92 ± 136 pg/mL | NT-proBNP, ΔWeek 24 Median [2, 5]: -197 pg/mL | NT-proBNP, ΔWeek 12 Mean ± SEM [2, 6]: -101 pg/mL | NT-proBNP, ΔWeek 12 Median [2, 6]: -92 pg/mL | NT-proBNP, ΔWeek 24 Mean ± SEM [2, 6]: +983 pg/ml | NT-proBNP, ΔWeek 24 Median [2, 6]: -48 pg/mL | NT-proBNP, ΔWeek 12 Mean ± SEM [2, 7]: +40 ± 170 pg/ml | NT-proBNP, ΔWeek 12 Median [2, 7]: -96 pg/mL | NT-proBNP, ΔWeek 24 Mean ± SEM [2, 7]: +41 ± 276 pg/ml | NT-proBNP, ΔWeek 24 Median [2, 7]: -176 pg/mL | NT-proBNP, ΔWeek 12 Mean ± SEM [2, 8]: +130 ± 262 pg/ml | NT-proBNP, ΔWeek 12 Median [2, 8]: -81 pg/mL | NT-proBNP, ΔWeek 24 Mean ± SEM [2, 8]: -163 ± 161 pg/mL | NT-proBNP, ΔWeek 24 Median [2, 8]: -315 pg/mL | NT-proBNP, ΔWeek 4 Median ([2]; change from baseline, entire cohort): -96 pg/mL | NT-proBNP decrease ([2]; end of the 24-week follow-up period, U.S.): 33% | NT-proBNP decrease from baseline ([2]; week 4, entire cohort): 96 pg/mL | NT-proBNP decrease from baseline ([2]; week 12, entire cohort): 96 pg/mL | NT-proBNP decrease relative to baseline ([2]; week 24, entire cohort): 197 pg/mL
